Laboratory results as given in patent US20100317699A1, “USE OF HEDGEHOG AGONISTS IN THE TREATMENT OF MUSCULOSKELETAL-RELATED DISORDERS” (NOVARTIS AG, priority 2008, published 2010).
“And” between values parts separate entries of the source, which are not always exact repeats. Equal entries are not always repeated. “Also recorded” adds a separate entry of the source.

Assays:
wild-type (WT) mice = assay: Intramuscular injection into wild-type mouse skeletal muscle, BrdU/Pax7 staining; format: in vivo; conditions: 500 μM IM once per day for two days
Procedure: (§1) FIG. 3 is a graphic depiction of the design of in vivo experiments, further detailed herein. 6 to 8-week old wildtype (WT), DMD^MDX, or WT cardiotoxin-injured mice (Ctx-inj) received two consecutive bilateral IM injections of either vehicle (10% DMSO/PBS), or Shh-Ag (500 μM) into tibialis anterior (TA) or gastrocnemius (GA) muscles, followed by an IP injection of BrdU. Mice were sacrificed and muscles were then collected 3 or 7 days following ctx-injury for immunostaining (TA) or FACS analysis (GA); n=4 for all groups.
(§2) Mice. All mouse protocols were approved by the Animal Care and Use Committee of Novartis Institutes for BioMedical Research. Wild-type (C57BL/6J) and C57BL/10 DMD^MDX mice were obtained from Jackson Labs. All analyses were performed on male mice approximately 6-8 weeks of age.
(§3) Shh-Ag treatment. 20 μl (TA) or 50 μl (GA) of vehicle (10% DMSO/PBS) or 500 μM Shh-Ag was injected into the respective tibialis anterior or gastrocnemius muscles once per day for two consecutive days.
(§4) BrdU treatment. […] Three random images from four replicate experiments were analyzed for total cell (Dapi) and BrdU+ cell number. […]
(§5) Immunostaining. […] Images were obtained using an ScanScope XT scanner and analyzed using Aperio ImageScope 6.25 software (Aperio Technologies). […]

Cyclin D1 [1] = assay: Cyclin D1 mRNA expression in isolated SCs; format: cell-based
Procedure: (§6) RNA and qRT-PCR. For analysis of gene expression, cells were treated with vehicle (DMSO) or 10 nM Shh-Ag for 24 hours. Total RNA was isolated with RNEasy Miniprep Kit (Qiagen), DNAse treated (RQ1, Promega) and reverse transcribed (iScript, Biorad) according to manufacturers instructions. Quantitative PCR was performed using Taqman Gene Expression Assays (Applied Biosystems) in an ABI7500 Fast system as per manufacturer's instructions. Gene expression changes were calculated using the comparative ΔΔCT method.
(§7) Myoblast and Satellite cell isolation. Primary mouse myoblasts were isolated from mouse hind-limb muscles as described herein. Muscle satellite cells were isolated from hind-limb muscles of 4-6 week old C57BL/6J mice. Muscles were dissected and finely chopped with razor blades in DMEM. Chopped muscles were placed in a 50 mL Falcon tube with 30 mL of dissociation solution (0.1% Collagenase D, 0.25% Trypsin in DMEM) and agitated at 37° for 20 minutes. Following dissociation, 500 μl of fetal calf serum was added to block Trypsin activity and samples were passed through a 37 μM filter. Solutions were diluted two-fold in DMEM, passed through a […] filter, centrifuged at 1000 RPM for 15 minutes, and the subsequent pellet was re-suspended in 1% FCS/PBS. Syndecan 4 positive satellite cells were then isolated by fluorescent activated cell sorting (FACS) utilizing an ARIA-UV cell sorter (BD).

[2] = system: WT cardiotoxin-injured mice; assay: Cardiotoxin-induced muscle injury and regeneration in WT mice, staining and FACS analysis; format: in vivo, mouse
Procedure: as §1, §2
Cardiotoxin-induced regeneration. Muscle regeneration was induced by injecting 40 μl (TA) or 100 μl (GA) of cardiotoxin (10 μM Naja atra; Sigma) into the respective tibialis anterior or gastrocnemius muscles of WT C57BL/6J mice.
as §3
BrdU treatment. For treatment of isolated SCs, a 1:100 dilution of 5-bromodeoxyuridine (BrdU) labeling reagent (10 mg/mL; Invitrogen) was added to the culture media 24 hours following vehicle or Shh-Ag treatment. Cells were then incubated an additional 5 hours, fixed, probed for BrdU, mounted with Dapi containing medium (Vector Labs), and then imaged as described in Materials in Methods. Three random images from four replicate experiments were analyzed for total cell (Dapi) and BrdU+ cell number. For in vivo delivery, 100 μl of BrdU was intraperitoneally (IP) injected following the second vehicle or Shh-Ag intramuscular injection.
FACS analysis. The following antibodies were used in this study: APC-conjugated anti-CD45 (BD), PE-conjugated anti-Syndecan 4 (BD), and FITC-conjugated anti-BrdU (BioVision). Muscles from treated mice were dissected and dissociated as described. To sort satellite cells for further experimentation, […] anti-syndecan 4 was utilized to positively select cells following ARIA (BD) mediated cell sorting. […]
as §5
To quantify the induction of SC proliferation, ctx-injured and Shh-Ag treated muscle samples (GA) were collected and processed for FACS analysis. A single-cell muscle suspension was gated based on CD45− and Syndecan4+ expression, commonly used identifiers of muscle SCs, and the resultant population was then analyzed for intracellular BrdU localization (see, e.g., FIG. 4). […]

Cyclin D1 [3] = assay: Cyclin D1 protein levels, Western blot densitometry; format: cell-based; conditions: rSHH 1 μg/mL; densitometric scores relative to vehicle=100
Procedure: (§8) Protein expression. For details of protein extraction and analysis, please see Supplementary Methods online. Antibodies used for Western are rabbit polyclonal antibodies against Gli1, total Akt, phosphorylated Akt-Ser473 (Cell Signaling) and Cyclin D1 (Abeam).
(§9) Protein Expression. Cells were collected in lysis buffer (20 mM Tris, pH 7.5, 150 mM NaCl, 1 mM EDTA, 1 mM EGTA, 1% Nonidet NP-40, 1 mM β-glycerol phosphate, 1 mM Na3VO4, 1 μg/ml leupeptin, and 1 mM PMSF) and measured for protein concentration with a BCA protein assay kit (Pierce). Electrophoretic separation was performed utilizing 20-60 μg of protein on 4-12% mini-gels (Invitrogen). Proteins were transferred to a PVDF membrane, blocked in 5% blotto [5% powdered milk in TBST (Tris-buffered saline, 1% Tween 20)] for 1 hr followed by an overnight incubation at 4° C. with primary antibody. After overnight incubation, membranes were washed for 30 min in TBST and then probed with anti-rabbit antibody for 45 min at room temperature. After another 30 min of washing in TBST, the blots were developed with ECL. Once the appropriate image was captured, membranes were stained with Coomassie blue to verify equal loading in all lanes. Densitometric measurements were carried out using AlphaEase software (Alpha Innotech).

Gli1 [4] = assay: Gli1 protein levels, Western blot densitometry; format: cell-based; conditions: rSHH 1 μg/mL; densitometric scores relative to vehicle=100
Procedure: as §8, §9

isolated satellite cells = assay: Isolated satellite cell proliferation, total cell number and BrdU incorporation; format: cell-based, mouse; conditions: 48 hr treatment, versus vehicle
Procedure: (§10) Cells. TM3 and C2C12 cells were obtained from ATCC, propagated according to manufacturer's instructions, and maintained at subconfluence. Both primary myoblasts and isolated satellite cells were grown in Ham's F10 media supplemented with 20% Fetal calf serum and 1% Penicillin/Streptomycin without βFGF. All cells were plated on pre-coated collagen dishes (MatTek) or on plastic culture plates treated with rat tail collagen type I (BD).
as §7, with “Syndecan 4 positive satellite cells were then isolated by fluorescent activated cell sorting (FACS) utilizing an ARIA-UV cell sorter (BD).” left out
as §4

Cyclin D1 [5] = assay: Cyclin D1 mRNA expression in myoblasts; format: cell-based
Procedure: as §6

Gli1 [6] = assay: Gli1 mRNA levels in myotubes; format: cell-based; conditions: 10 μM, 24 hours
DMD^MDX mice = assay: Intramuscular injection into DMD MDX mouse skeletal muscle, BrdU/Pax7 staining; format: in vivo; conditions: 500 μM IM once per day for two days
Procedure: as §1, §2, §3, §4, §5

primary myoblasts = assay: Primary myoblast proliferation, PI staining and FACS analysis; format: cell-based, mouse
Procedure: as §10
Myoblast isolation. Two to three week-old male C57/BL/6J pups were used for the experiments. The mice were euthanized using CO2. Then the skin and fascia from the ankle joint up toward the hip were peeled to expose underlying muscles. The muscles (hamstring, quadriceps, tibialis anterior, extensor digitorum longus, gastrocnemius and soleus) from both legs were carefully removed, trying to any tendons and non-muscle tissues. The dissected muscles were placed in a sterile […] containing PBS and washed to remove hair and other debris. The muscles were then transferred to a sterile 35 mm^2 dish and 1.5 ml of a collagenase/dispase solution was added to digest the tissues. The tissues were mulched into a reasonably smooth pulp using sterile disposable followed by incubating at 37° C. for 12 min. They were then triturated using 5 ml plastic pipettes to homogenize the mixture. The incubation and triturating step was repeated once more. […]

## CNC1CCC(N(Cc2cccc(-c3ccncc3)c2)C(=O)c2sc3c(F)ccc(F)c3c2Cl)CC1 (stereo not drawn) [Shh-Ag]
wild-type (WT) mice
  Pax7/BrdU fluorescent co-staining of muscle sections: Pax7+/BrdU+ double positive cells were easily seen
wild-type (WT) mice; vehicle sections negative
  BrdU staining of muscle sections: displayed BrdU+ precursor cells
Cyclin D1 [1]
  increase in Cyclin D1 mRNA expression: more than 50%
[2]; 7 days following ctx-injury
  BrdU+, centrally-aligned nuclei in longitudinal muscle sections: increase in BrdU+, centrally-aligned nuclei
[2]; ctx-injured GA muscle, FACS, vehicle 4.82±0.33
  percent of proliferating (BrdU+) SCs: 10.67±1.87% and 10.6%
[2]; ctx-injured WT muscle, compared to vehicle control
  percentage of Pax7 expressing SCs that are Pax7+/BrdU+ double positive: larger percentage
[2]; single cardiotoxin injury, WT mice, 500 μM IM
  number of BrdU+ cells at an early stage of regeneration: significantly increase
Cyclin D1 [3]
  Cyclin D1 protein levels: elevated protein expression; also recorded: increase
Gli1 [4]
  Gli1 protein levels: induction; also recorded: increase
Isolated satellite cells
  increase in the percentage of SCs incorporating BrdU: two fold increase
Cyclin D1 [5]
  increase in Cyclin D1 mRNA expression: more than 50%
Gli1 [6]
  Gli1 mRNA levels, fold increase: over 20 fold
DMD^MDX mice
  mononuclear cell infiltration (BrdU+ staining): seemed to promote even greater mononuclear cell infiltration
  number of Pax7−/BrdU+ cells: greatly increased

## IGF-1: Insulin-like growth factor I, a known skeletal muscle mitogen signaling through PI3K/Akt
Primary myoblasts
  myoblast proliferation on co-treatment of Shh-Ag with IGF-1: did not significantly increase
